Tests used:
TchiGR43a [1] = molecular target: T1, TchiGR43a (Trichogramma chilonis, UniProt A0A481RL18); assay: two-electrode voltage-clamp of Xenopus oocytes expressing TchiGR43a, dose-response; assay type: cell-based
T1 construct: full-length open reading frame (549 amino acid residues), expressed in Xenopus laevis oocytes
T1 sequence (A0A481RL18 1-549): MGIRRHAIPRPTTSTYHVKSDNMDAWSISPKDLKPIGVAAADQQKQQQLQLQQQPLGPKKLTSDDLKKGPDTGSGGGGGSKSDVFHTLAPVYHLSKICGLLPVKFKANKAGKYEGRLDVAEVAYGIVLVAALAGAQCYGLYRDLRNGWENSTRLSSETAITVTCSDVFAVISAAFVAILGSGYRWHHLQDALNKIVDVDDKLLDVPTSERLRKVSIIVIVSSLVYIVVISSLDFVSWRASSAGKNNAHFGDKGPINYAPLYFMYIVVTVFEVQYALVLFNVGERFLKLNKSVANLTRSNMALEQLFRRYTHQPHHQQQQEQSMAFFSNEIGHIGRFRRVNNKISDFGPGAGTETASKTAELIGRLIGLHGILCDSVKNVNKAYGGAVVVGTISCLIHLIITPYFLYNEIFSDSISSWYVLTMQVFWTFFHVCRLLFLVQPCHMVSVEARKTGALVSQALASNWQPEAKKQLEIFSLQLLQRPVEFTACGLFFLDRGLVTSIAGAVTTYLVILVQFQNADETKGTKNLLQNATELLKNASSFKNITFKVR

TchiGR43a [2] = molecular target: T1, TchiGR43a; assay: two-electrode voltage-clamp of Xenopus oocytes expressing TchiGR43a, single concentration […] (weaker response than D-fructose); assay type: cell-based

SMILES	EC50 (TchiGR43a [1])	two-electrode voltage-clamp of Xenopus oocytes expressing TchiGR43a, single conc (TchiGR43a [2])
O=C(CO)[C@@H](O)[C@H](O)[C@H](O)CO [D-fructose]	23 mM	
O[C@H]1[C@H](O)[C@@H](O)[C@H](O)[C@@H](O)[C@H]1O [myo-inositol]		the oocytes expressing TchiGR43a showed responses to D-fructose and myo-inositol

Reference: PMC6583964, “Identification and functional characterization of D-fructose receptor in an egg parasitoid, Trichogramma chilonis” (PLoS ONE, 2019)
